Molecules are shown by their SMILES.

One assay has as its system Lemna paucicostata. Briefly: Herbicidal action: growth inhibition of duck weed (Lemna). It counts as in vivo. As to conditions: Lemna aequinoctialis, increase in leaf area after 8-10 days, 25° C., permanent light, read-out: Growth inhibition (% relative to the control). How it is done:
The herbicidal action of the compounds according to the invention is investigated using the representative test model below. The effect of the test substances on the growth of duck weed is determined by the following method:
The duct weed Lemna paucicostata was grown under sterile conditions and 250 ml glass vessels containing 100 ml of inorganic nutrient solution and supplemented with 1% sucrose, as described by Grossmann et al., Pesticide Science 35, (1992), 283-289. At the beginning of the test, 150 μl of a solution of active compound in acetone (stock solution: 100-fold concentrated) were pipetted into Petri dishes (diameter 6 cm, height 1.5 cm; Greiner, Frickenhausen) containing 15 ml of nutrient solution. (without added sucrose). Only the solvent component of the active compound solution was added to the nutrient solution for the control tests. Then, 4 Lemna plants were introduced into each dish, the dishes were covered with lids and incubated under permanent light conditions at 25° C. After 8-10 days, the increase in leaf area was determined using an imaging apparatus (Imago, Compulog Computer Syst., Böblingen) as growth parameter, and this was used to calculate the growth inhibition as a percentage relative to the control.

Another assay deals with Plasmopara viticola. Briefly: Fungicidal action: activity against Plasmopara viticola on grapevines (persistency). Type of assay: in vivo. Conditions: grapevines c.v. Müller-Thurgau, inoculated 7 days after spraying, undersides of leaves assessed visually, untreated control 90. The source says:
Activity Against Plasmopara viticola
Leaves of potted grapevines c.v. “Müller-Thurgau” were sprayed to run off point with an aqueous preparation of active compound which had been prepared using a stock solution comprising 10% of active compound, 63% of cyclohexanone and 27% of emulsifier. In order to be able to assess the persistency of the substances, the plants were kept for 7 days in a greenhouse after the spray coating had dried on. Only then were the leaves inoculated with an aqueous zoospore suspension of Plasmopara viticola. The grapevines were then initially kept in a water vapor-saturated chamber at 24° C. for 48 hours and then in a greenhouse at 20 and 30° C. for 5 days. After this period of time, the plants were once more kept in a humid chamber for 16 hours to promote sporangiophore eruption. The extent of the infection on the undersides of the leaves was then determined visually.

As for `N#CC(C(=O)Nc1ccc(Cl)c(Cl)c1)c1ccccc1` (stereo not shown) [A, N-(3,4-dichlorophenyl)-2-cyano-2-phenylacetamide], the inhibition at 1 µM with Lemna paucicostata (concentration 1 μmolar) was 40%. For the same molecule, the inhibition at 10 µM in the assay on Lemna paucicostata (concentration 10 μmolar) was 93%. Also, the inhibition at 100 µM with Lemna paucicostata (concentration 100 μmolar) is 100%.
`N#CC(C(=O)Nc1cccc(Cl)c1)c1ccccc1` (stereo not shown) [No. 2, N-(3-chlorophenyl)-2-cyano-2-phenylacetamide]: the “% infection of the leaves after application of an aqueous preparation containing 250 ppm of active compound” value in the assay with Plasmopara viticola is reported as 0%.
